Data taken from patent US7138361B2, “Herbicidal heterocycles” (E. I. du Pont de Nemours and Company, priority 2000, dated 2006).

Key:
Assay in all cases: Test C preemergence
Format in all cases: in vivo
[1] = system: lambsquarters (Chenopodium album)
How it was run: (§1)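 Compounds in non-phytotoxic solvent with surfactant applied preemergence to planted seeds and postemergence to plants at 1- to 4-leaf stage (2–18 cm). Kept in greenhouse 12–14 days, then visually rated against controls on a 0 (no effect) to 100 (complete control) scale.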

kochia (Kochia scoparia) = system: kochia (Kochia scoparia)
How it was run: as §1

[2] = system: cocklebur (Xanthium strumarium)
How it was run: as §1

[3] = system: pigweed (Amaranthus retroflexus)
How it was run: as §1

[4] = system: common ragweed (Ambrosia elatior)
How it was run: as §1

corn (Zea mays) = system: corn (Zea mays)
How it was run: as §1

Nightshade = system: Nightshade
[5] = system: Surinam grass (Brachiaria decumbens)
How it was run: as §1

[6] = system: giant foxtail (Setaria faberii)
How it was run: as §1

[7] = system: woolly cupgrass (Eriochloa villosa)
How it was run: as §1

[8] = system: johnsongrass (Sorghum halepense)
How it was run: as §1

[9] = system: velvetleaf (Abutilon theophrasti)
How it was run: as §1

[10] = system: bermudagrass (Cynodon dactylon)
How it was run: as §1

soybean (Glycine max) = conditions: preemergence
How it was run: as §1

[11] = system: yellow nutsedge (Cyperus esculentus)
How it was run: as §1

Sunflower [12] = conditions: Rate 125 g/ha; scale 0 to 100, 0 no effect, 100 complete control
[13] = system: morningglory (Ipomoea hederacea)
How it was run: as §1

[14] = system: crabgrass (Digitaria sanguinalis)
How it was run: as §1

[15] = system: goosegrass (Eleusine indica)
How it was run: as §1

Sunflower [16] = conditions: Rate 250 g/ha, scale 0 to 100, 0 no effect, 100 complete control
[17] = Rate 62 g/ha, scale 0 to 100, 0 no effect, 100 complete control
[18] = Rate 125 g/ha, scale 0 to 100, 0 no effect, 100 complete control
[19] = preemergence, Rate 31 g/ha, scale 0 to 100
[20] = preemergence, Rate 250 g/ha, scale 0 to 100, 0 no effect, 100 complete control
[21] = preemergence, Rate 250 g/ha, visual evaluation after 12 to 14 days
[22] = Rate 250 g/ha, scale 0 to 100, 0 no effect, 100 complete control

## CCC(CC)c1ccn(C2CCN(c3ccc(C)c(OC)c3)C2=O)n1 (stereo not drawn) [Compound 81]
[1]; [17]
  Plant response rating, Lambsquarters: 100
[1]; [18]
  Plant response rating, Lambsquarters: 100
[1]; [19]
  Plant response rating, Lambsquarters: 100
[1]; [20]
  Plant response rating, Lambsquarters: 100
Kochia (Kochia scoparia); [17]
  Plant response rating, Kochia: 100
Kochia (Kochia scoparia); [18]
  Plant response rating, Kochia: 100
Kochia (Kochia scoparia); [19]
  Plant response rating, Kochia: 100
Kochia (Kochia scoparia); [21]
  Plant response rating (0 to 100), Kochia: 100
[2]; [17]
  Plant response rating, Cocklebur: 0
[2]; [18]
  Plant response rating, Cocklebur: 0
[2]; [19]
  Plant response rating, Cocklebur: 0
[2]; [21]
  Plant response rating (0 to 100), Cocklebur: 20
[3]; [18]
  Plant response rating, Pigweed: 100
[3]; [19]
  Plant response rating, Pigweed: 100
[3]; [20]
  Plant response rating, Pigweed: 100
[4]; [18]
  Plant response rating, Ragweed, Common: 100
[4]; [19]
  Plant response rating, Ragweed, Common: 30
[4]; [20]
  Plant response rating, Ragweed, Common: 100
Corn (Zea mays); [17]
  Plant response rating, Corn: 0
Corn (Zea mays); [18]
  Plant response rating, Corn: 0
Corn (Zea mays); [19]
  Plant response rating, Corn: 0
Corn (Zea mays); [21]
  Plant response rating (0 to 100), Corn: 0
Nightshade; Rate 31 g/ha, scale 0 to 100
  Plant response rating, Nightshade: 70
Nightshade; [17]
  Plant response rating, Nightshade: 100
Nightshade; [18]
  Plant response rating, Nightshade: 100
Nightshade; [22]
  Plant response rating, Nightshade: 100
[5]; [17]
  Plant response rating, Surinam grass: 20
[5]; [18]
  Plant response rating, Surinam grass: 50
[5]; [19]
  Plant response rating, Surinam grass: 0
[5]; [21]
  Plant response rating (0 to 100), Surinam grass: 100
[6]; [17]
  Plant response rating, Foxtail, Giant: 90
[6]; [18]
  Plant response rating, Foxtail, Giant: 100
[6]; [19]
  Plant response rating, Foxtail, Giant: 30
[6]; [21]
  Plant response rating (0 to 100), Foxtail, Giant: 100
[7]; [17]
  Plant response rating, Cupgrass, Woolly: 30
[7]; [18]
  Plant response rating, Cupgrass, Woolly: 30
[7]; [19]
  Plant response rating, Cupgrass, Woolly: 0
[7]; [21]
  Plant response rating (0 to 100), Cupgrass, Woolly: 100
[8]; [17]
  Plant response rating, Johnsongrass: 0
[8]; [18]
  Plant response rating, Johnsongrass: 20
[8]; [19]
  Plant response rating, Johnsongrass: 0
[8]; [21]
  Plant response rating (0 to 100), Johnsongrass: 20
[9]; [18]
  Plant response rating, Velvetleaf: 30
[9]; [19]
  Plant response rating, Velvetleaf: 0
[9]; [20]
  Plant response rating, Velvetleaf: 80
[10]; [17]
  Plant response rating, Bermudagrass: 100
[10]; [18]
  Plant response rating, Bermudagrass: 100
[10]; [19]
  Plant response rating, Bermudagrass: 100
[10]; [21]
  Plant response rating (0 to 100 where 0 is no effect and 100 is complete control), Bermudagrass: 100
Soybean (Glycine max); Rate 31 g/ha, scale 0 to 100
  Plant response rating, Soybean: 30
Soybean (Glycine max); [22]
  Plant response rating, Soybean: 100
[11]; [17]
  Plant response rating, Nutsedge: 0
[11]; [18]
  Plant response rating, Nutsedge: 0
[11]; [19]
  Plant response rating, Nutsedge: 0
[11]; [20]
  Plant response rating, Nutsedge: 0
Sunflower [12]
  Plant response rating, Sunflower: 0
[13]; [17]
  Plant response rating, Morningglory: 0
[13]; [18]
  Plant response rating, Morningglory: 20
[13]; [19]
  Plant response rating, Morningglory: 0
[13]; [20]
  Plant response rating, Morningglory: 20
[14]; [17]
  Plant response rating, Crabgrass: 100
[14]; [18]
  Plant response rating, Crabgrass: 100
[14]; [19]
  Plant response rating, Crabgrass: 60
[14]; [21]
  Plant response rating (0 to 100), Crabgrass: 100
[15]; [17]
  Plant response rating, Goosegrass: 100
[15]; [18]
  Plant response rating, Goosegrass: 100
[15]; [19]
  Plant response rating, Goosegrass: 90
[15]; [21]
  Plant response rating (0 to 100), Goosegrass: 100
Sunflower [16]
  Plant response rating, Sunflower: 0
